“Also recorded” adds a separate entry of the source.

We go through 15 molecules from patent US20230174510A1, “N-acetylserotonin Derivatives as TrkB Activators and Uses Thereof” (Emory University, priority 2020, published 2023).

Data set [1] concerns the target T1, TrkB (Rattus norvegicus, UniProt Q63604).
T1 construct: in primary cultures of rat cortical neurons; endogenous in cells; host or cells: primary rat cortical neurons
The experiment in a line: TrkB phosphorylation, western blot, primary rat cortical neuronal culture. It is filed as cell-based. Details: key: “+”=increased phosphorylation; “−”=decreased phosphorylation; “nc”=no change. How it is done:
(§1) Different concentrations of 2-fluoro-N-(2-(5-hydroxy-1H-indol-3-yl)ethyl)nicotinamide (analogue 147) were tested in NIH-3T3-TrkB cells. Cells at 70-80% confluency were serum deprived overnight and then stimulated with different concentrations of analogue 147 for 30 minutes. Protein extract was collected and subjected for western blot analysis. […] “+”=increased phosphorylation; “−”=decreased phosphorylation; “nc”=no change.
(§2) To screen the analogs for biological activity, the phosphorylation state of TrkB and AKT, a downstream signaling mediator of TrkB activation, was examined in cultured NIH/3T3 cells expressing human TrkB and in primary cultures of rat cortical neurons (see FIG. 5).
(In general: Immunoblotting shows a protein as a band on a membrane.)

Data set [2] has as its system AKT. Put plainly: AKT phosphorylation, western blot, NIH 3T3 cells expressing human TrkB. It counts as cell-based. Details: key: “+”=increased phosphorylation; “−”=decreased phosphorylation; “nc”=no change. Particulars: NIH 3T3 - TrkB cells. As for the experimental part:
as §1, §2

Data set [3] has as its target T2, TrkB (Homo sapiens, UniProt Q16620). Put plainly: TrkB phosphorylation, western blot, NIH 3T3 cells expressing human TrkB. It is filed as cell-based. Details: expressed in transfected cells; host or cells: NIH/3T3 (NIH-3T3-TrkB) cells; key to pTrkB/β-actin: “+”=increased phosphorylation; “−”=decreased phosphorylation; “nc”=no change. Particulars: for pTrkB/β-actin: NIH 3T3 - TrkB cells, western blot; for concentration of best TrkB activation / TrkB activation, concentration dependence: NIH-3T3-TrkB cells, stimulated 30 minutes; for concentration of best TrkB activation: serum deprived overnight. As for the experimental part:
as §1, §2
Target sequence in this assay (Q16620 32-822): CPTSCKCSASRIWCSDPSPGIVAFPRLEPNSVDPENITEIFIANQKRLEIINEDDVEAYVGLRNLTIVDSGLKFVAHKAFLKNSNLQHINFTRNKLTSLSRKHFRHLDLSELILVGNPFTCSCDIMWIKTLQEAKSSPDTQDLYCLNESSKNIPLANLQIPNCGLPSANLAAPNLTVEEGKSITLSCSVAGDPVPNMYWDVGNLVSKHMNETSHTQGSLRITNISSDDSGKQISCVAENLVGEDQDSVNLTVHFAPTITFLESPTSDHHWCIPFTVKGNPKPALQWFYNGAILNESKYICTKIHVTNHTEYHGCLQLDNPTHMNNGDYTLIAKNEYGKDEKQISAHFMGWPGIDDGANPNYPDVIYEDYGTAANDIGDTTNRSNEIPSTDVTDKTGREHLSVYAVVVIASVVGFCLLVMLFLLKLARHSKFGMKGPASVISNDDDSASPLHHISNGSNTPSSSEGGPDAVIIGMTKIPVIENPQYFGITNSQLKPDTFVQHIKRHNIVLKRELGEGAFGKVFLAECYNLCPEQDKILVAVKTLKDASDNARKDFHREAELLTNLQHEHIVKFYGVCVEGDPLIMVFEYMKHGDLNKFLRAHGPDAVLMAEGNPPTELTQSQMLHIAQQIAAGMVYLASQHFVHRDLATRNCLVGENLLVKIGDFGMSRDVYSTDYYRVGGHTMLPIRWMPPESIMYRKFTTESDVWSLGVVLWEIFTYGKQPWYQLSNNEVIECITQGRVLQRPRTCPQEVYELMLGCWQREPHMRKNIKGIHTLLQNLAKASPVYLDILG

Data set [4] relates to AKT. Put plainly: AKT phosphorylation, western blot, primary rat cortical neuronal culture. It is filed as cell-based. More on the design: key: “+”=increased phosphorylation; “−”=decreased phosphorylation; “nc”=no change. As for the experimental part: as §1, §2
Data set [5] addresses T2, TrkB. Particulars: cited from earlier work.
Target sequence in this assay (Q16620 32-822, species assumed): as the sequence (Q16620 32-822) above
The subject of data set [6] is brain damage from subarachnoid hemorrhage. Particulars: cited from earlier work.
Data set [7] addresses T3, TrkB (Mus musculus, UniProt P15209).
T3 construct: from tissue; host or cells: retina (ganglion cells) and brain
Put plainly: TrkB activation in retina and brain after systemic administration. It is filed as in vivo. The source says: This disclosure contemplates pharmaceutical treatments for trauma-induced vision loss that can be administered on the battlefield or in field hospitals during the critical period before irreversible neuronal degeneration and vision loss occur. A mouse blast injury model has been used to characterize the effects of blast injury to the eye and visual system. Blast injury results in (1) inflammatory responses (microglial activation and reactive gliosis) and activation of the innate and acquired immune system; (2) loss of visual function (contrast sensitivity and visual acuity); (3) thinning of the nerve fiber layer of the retina, and (4) axon loss in the optic nerve. An N-acetylserotonin derivative, N-[2-(5-hydroxy-1H-indol-3-yl)ethyl]-2-oxopiperidine-3-carboxamide (HIOC), effectively mitigates vision loss when administered within several hours after blast exposure (FIG. 1). Daily administration for one week reduces or prevents blast-induced loss of visual function for at least 4 months, mitigating the progressive vision loss that occurs over time in the absence of treatment. This therapeutic effect of HIOC is mediated by activation of TrkB, the cognate receptor for Brain-Derived Neurotrophic Factor (BDNF). Both N-acetylserotonin and HIOC activate TrkB and have neuroprotective properties. […]

Data set [8] relates to blast-induced loss of visual function. The experiment in a line: Mouse blast injury (TBI) model, loss of visual function. It is filed as in vivo. How it is done: Mice were exposed to a single 70 psi blast directed at the right side of the head. HIOC or vehicle was administered 15 minutes after exposure to blast, and daily for the next six days. A sham control group was included for comparison. Visual function was tested 1 week after blast.
This disclosure contemplates pharmaceutical treatments for trauma-induced vision loss that can be administered on the battlefield or in field hospitals during the critical period before irreversible neuronal degeneration and vision loss occur. A mouse blast injury model has been used to characterize the effects of blast injury to the eye and visual system. Blast injury results in (1) inflammatory responses (microglial activation and reactive gliosis) and activation of the innate and acquired immune system; (2) loss of visual function (contrast sensitivity and visual acuity); (3) thinning of the nerve fiber layer of the retina, and (4) axon loss in the optic nerve. An N-acetylserotonin derivative, N-[2-(5-hydroxy-1H-indol-3-yl)ethyl]-2-oxopiperidine-3-carboxamide (HIOC), effectively mitigates vision loss when administered within several hours after blast exposure (FIG. 1). Daily administration for one week reduces or prevents blast-induced loss of visual function for at least 4 months, mitigating the progressive vision loss that occurs over time in the absence of treatment. This therapeutic effect of HIOC is mediated by activation of TrkB, the cognate receptor for Brain-Derived Neurotrophic Factor (BDNF). Both N-acetylserotonin and HIOC activate TrkB and have neuroprotective properties. The pharmacokinetic characteristics of HIOC are desirable for an in vivo treatment because TrkB is activated for up to 16 hours following a single injection.
The ability of HIOC to mitigate the loss of visual function resulting from blast directed at the head was examined (FIG. 1). Mice were exposed to a single blast of ˜70 psi directed on the right side of the head. Contrast sensitivity was measured 1 week after blast.

Data set [9] deals with kainic acid-induced neuronal cell death. Particulars: TrkB-dependent; cited from earlier work.
The subject of the next data set is photoreceptor damage. Particulars: cited from earlier work.

T1 sequence (Q63604 32-821): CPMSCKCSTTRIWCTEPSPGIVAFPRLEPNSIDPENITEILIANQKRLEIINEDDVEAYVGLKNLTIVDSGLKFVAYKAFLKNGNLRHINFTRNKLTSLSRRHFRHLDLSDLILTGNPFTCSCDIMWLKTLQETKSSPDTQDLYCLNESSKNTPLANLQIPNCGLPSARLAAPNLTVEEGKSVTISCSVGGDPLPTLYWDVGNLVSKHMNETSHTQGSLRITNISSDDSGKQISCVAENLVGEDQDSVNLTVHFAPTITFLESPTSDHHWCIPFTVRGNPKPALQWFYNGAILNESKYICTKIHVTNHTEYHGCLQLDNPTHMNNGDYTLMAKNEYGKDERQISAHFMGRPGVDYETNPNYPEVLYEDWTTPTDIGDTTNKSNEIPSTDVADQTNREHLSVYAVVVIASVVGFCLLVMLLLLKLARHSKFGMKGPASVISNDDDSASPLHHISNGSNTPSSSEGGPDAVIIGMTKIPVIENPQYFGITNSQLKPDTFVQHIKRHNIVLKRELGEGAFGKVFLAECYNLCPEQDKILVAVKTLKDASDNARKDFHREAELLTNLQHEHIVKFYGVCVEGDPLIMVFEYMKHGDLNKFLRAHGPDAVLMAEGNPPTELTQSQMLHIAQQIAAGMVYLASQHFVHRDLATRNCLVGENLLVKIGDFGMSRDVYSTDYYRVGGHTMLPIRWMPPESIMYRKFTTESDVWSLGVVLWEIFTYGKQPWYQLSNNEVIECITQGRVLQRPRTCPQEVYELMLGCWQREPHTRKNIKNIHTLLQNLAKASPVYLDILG
T3 sequence (P15209 32-821): as the sequence (Q63604 32-821) above, with M3T, T9S, T10A, I32V, K63R, G84S, T153M, I185L, T394S, N770S counted along it

As to `O=C(NCCc1c[nH]c2ccc(O)cc12)c1ccccc1` [Analogue 83, N-(2-(5-hydroxy-1H-indol-32-yl)ethyl)benzamide], the pTrkB/β-actin entry at TrkB [1] and at TrkB [3] was “+” in each case. Further, the pAkt/β-actin entry in the data set on AKT [2] and in the data set on AKT [4] was “+” each time.

`O=C(NCCc1c[nH]c2ccc(O)cc12)c1cccnc1` [Analogue 85, N-(2-(5-hydroxy-1H-indol-3-yl)ethyl)nicotinamide]: the pTrkB/β-actin result at TrkB [1] is recorded as “+”; on TrkB [3] it was “nc”. The figures for the pAkt/β-actin result in the data set with AKT [2] and in the data set on AKT [4] were “nc” and “+”, respectively.

Take `O=C(NCCc1c[nH]c2ccc(O)cc12)c1ccccn1` [Analogue 105, N-(2-(5-hydroxy-1H-indol-3yl)ethyl)picolinamide]: the pTrkB/β-actin entry is “+” on TrkB [1] and “−” on TrkB [3]. Besides, the pAkt/β-actin result in the data set with AKT [2] and in the data set with AKT [4] was “+” throughout.

Take `O=C(NCCc1c[nH]c2ccc(O)cc12)c1ccncc1` [Analogue 107, N-(2-(5-hydroxy-1H-indol-3-yl)ethyl)isonicotinamide]: the pTrkB/β-actin result at TrkB [1] and at TrkB [3] was “+” throughout. For the same molecule, the pAkt/β-actin result with AKT [2] and in the data set with AKT [4] was “+” each time.

Turning to `O=C(NCCc1c[nH]c2ccc(O)cc12)c1ccc(F)cn1` [Analogue 112, 5-fluoro-N-(2-(5-hydroxy-1H-indol-3yl)ethyl)picolinamide], on TrkB [1], the pTrkB/β-actin entry is given as “+”. For the same molecule, in the data set on AKT [4], the pAkt/β-actin result is “−”.

With `O=C(NCCc1c[nH]c2ccc(O)cc12)c1ccncc1F` [Analogue 114, 3-fluoro-N-(2-(5-hydroxy-1H-indol-3-yl)ethyl)isonicotinamide], the pTrkB/β-actin entry at TrkB [1] is recorded as “nc”. Further, the pAkt/β-actin entry in the data set on AKT [4] is on record as “nc”.

Take `O=C(NCCc1c[nH]c2ccc(O)cc12)c1cncc(F)c1` [Analogue 127, 5-Fluoro-N-(2-(5-hydroxy-1H-indol-3-yl)ethyl)nicotinamide]: at TrkB [1], the pTrkB/β-actin entry is “+”. For the same molecule, the pAkt/β-actin result with AKT [2] is “−”. In addition, at TrkB [3], the pTrkB/β-actin entry is listed as “+”; the “concentration of best TrkB activation” value is given as 100 nM; the “TrkB activation, concentration dependence” value is on record as “higher activity at low nanomolar concentrations than at 1 μM”. For the same molecule, the pAkt/β-actin result in the data set with AKT [4] is “+”.

Take `O=C1NCCCC1C(=O)NCCc1c[nH]c2ccccc12` (stereo not shown) [Analogue 145, N-(2-(1H-indol-3-yl)ethyl)-2-oxopiperidine-3-carboxamide]: the pTrkB/β-actin result at TrkB [1] and on TrkB [3] was “+” throughout. For the same molecule, the pAkt/β-actin result with AKT [2] and in the data set on AKT [4] was “+” throughout.

Turning to `O=C(NCCc1c[nH]c2ccc(O)cc12)c1cccnc1F` [Analogue 147, 2-fluoro-N-(2-(5-hydroxy-1H-indol-3yl)ethyl)nicotinamide], the pTrkB/β-actin result on TrkB [1] is recorded as “+”. Further, in the data set with AKT [2], the pAkt/β-actin result was “+”. For the same molecule, at TrkB [3], the pTrkB/β-actin entry is recorded as “+”; the “concentration of best TrkB activation” value was determined as 10 nM; the “TrkB activation, concentration dependence” value is on record as “higher activity at low nanomolar concentrations than at 1 μM”. For the same molecule, the pAkt/β-actin entry in the data set with AKT [4] is given as “+”.

Regarding `COc1ccc2[nH]cc(CCNC(=O)C3CCCNC3=O)c2c1` (stereo not shown) [Analogue 149, N-(2-(5-methoxy-1H-indol-3-yl)ethyl)-2-oxopiperidine-3-carboxamide], the pTrkB/β-actin result on TrkB [1] was “+”; at TrkB [3], “−”. For the same molecule, the pAkt/β-actin result in the data set on AKT [2] and in the data set with AKT [4] was “+” in each case.

Regarding `CN1CCCC(C(=O)NCCc2c[nH]c3ccc(O)cc23)C1=O` (stereo not shown) [Analogue 151, N-(2-(5-hydroxy-1H-indol-3-yl)ethyl)-1-methyl-2-oxopiperidine-3-carboxamide], the pTrkB/β-actin entry at TrkB [1] is “+”. The pAkt/β-actin result in the data set on AKT [4] is “−”.

Consider `CC1(C(=O)NCCc2c[nH]c3ccc(O)cc23)CCCNC1=O` (stereo not shown) [Analogue 170, N-(2-(5-hydroxy-1H-indol-3-yl)ethyl)-3-methyl-2-oxopiperidine-3-carboxamide], for which the pTrkB/β-actin entry on TrkB [1] and on TrkB [3] was “+” each time. Also, the pAkt/β-actin entry in the data set with AKT [2] is “+”; with AKT [4] it was “nc”.

On to `O=C1NCCCC1C(=O)NCCc1c[nH]c2ccc(O)cc12` (stereo not shown) [HIOC, N-[2-(5-hydroxy-1H-indol-3-yl)ethyl]-2-oxopiperidine-3-carboxamide], for which the pTrkB/β-actin result on TrkB [1] and on TrkB [3] was “+” throughout. Moreover, the pAkt/β-actin result with AKT [2] and in the data set with AKT [4] was “+” in each case. The TrkB activation result at TrkB [5] was “activate TrkB; also recorded: selectively activates TrkB”. For the same molecule, the “brain damage from subarachnoid hemorrhage” value in data set [6] was “attenuates brain damage”. For the same molecule, the “duration of TrkB activation” value at TrkB [7] (following a single injection) is “up to 16 hours”. The “blood-retinal and blood-brain barrier penetration” value at TrkB [7] (systemic administration) is “crosses the blood-retinal and blood-brain barriers”. Besides, in [8] (blast exposure), the “effects on blast-induced retinal and optic nerve damage” value is “reduces vision loss, microglial activation in the retina, nerve fiber layer thinning, and the optic nerve axon loss”. Also, in [8] (daily administration for one week), the “duration of protection from blast-induced loss of visual function” value was “at least 4 months”. Also, in data set [8] (mice, single ~70 psi blast, 80 mg/kg, measured 1 week after blast), the “TBI induced decrease in contrast sensitivity” value is “completely prevented”. Also, the “kainic acid-induced neuronal cell death / apoptosis” value in [9] is “inhibits neuronal apoptosis; also recorded: reduces kainic acid-induced neuronal cell death”. Moreover, the “photoreceptor damage from toxic light exposure” value with photoreceptor damage is recorded as “reduces photoreceptor damage”.

As to `CC(=O)NCCc1c[nH]c2ccc(O)cc12` [N-acetylserotonin], on TrkB [5], the TrkB activation result was “activate TrkB”.

B1: BDNF: Brain-Derived Neurotrophic Factor; TrkB is its cognate receptor (protein, UniProt P23560 19-247, looked up)
Neurotrophic factor BDNF …: APMKEANIRGQGGLAYPGVRTHGTLESVNGPKAGSRGLTSLADTFEHVIEELLDEDQKVRPNEENNKDADLYTSRVMLSSQVPLEPPLLFLLEEYKNYLDAANMSMRVRRHSDPARRGELSVCDSISEWVTAADKKTAVDMSGGTVTVLEKVPVSKGQLKQYFYETKCNPMGYTKEGCRGIDKRHWNSQCRTTQSYVRALTMDSKKRIGWRFIRIDTSCVCTLTIKRGR
In the case of B1, the pTrkB/β-actin entry with TrkB [1] and with TrkB [3] was “+” in each case. Besides, the pAkt/β-actin result in the data set with AKT [2] and in the data set with AKT [4] was “+” in each case.
